Results: patent US4859663A, “Multiply substituted pyridine 1-oxide compounds which are useful in treating brain disorders” (Hoechst Aktiengesellschaft, priority 1985, dated 1989)
Like-named read-outs stand apart in the source and are kept apart here.

Legend:
Acute toxicity (LD50) = conditions: in vivo, mouse, mortality within 7 days
Description: 2. Acute toxicity The standard method for the determination of the LD50 values or LD50 ranges via the mortality occurring in Naval Medical Research Institute mice within 7 days after a single intravenous (i.v.), intraperitoneal (i.p.) or oral (p.o.) administration was used.

anesthetized male rats = assay: EEG hypoxia-tolerance test (antihypoxic / cerebroprotective action); type: in vivo, rat; conditions: ip, read-out: % change in the EEG-RL (EEG hypoxia recovery latency period); for change in vivo at 25 mg/kg: 25 mg/kg i.p.
Method: The compounds according to the invention were tested for a cerebroprotective action towards damage caused by hypoxia by means of the EEG hypoxia-tolerance test (EEG: Electroencephalogram) comparing with the most important representatives of types of compounds which belong to the state of the art. In this method, anesthetized male rats with implanted EEG electrodes are subjected to progressive hypoxia by passing nitrogen into a chamber. […] The criterion used for assessment of an antihypoxic action is the EEG hypoxia recovery latency period (EEG-RL), which is defined as the time from the opening of the chamber after onset of EEG silence until the first signals appear again. […] The compounds according to the invention were administered intraperitoneally 15 minutes before the start of hypoxia. The group size was n =8.

rat = assay: Gamma-butyrolactone test on the rat (EEG); type: in vivo
Description: (b) Gamma-butyrolactone test on the rat
It is known from the literature (L.I. Wolfson et al., J. Neurochem. 29, 777 (1977)) that gamma-butyrolactone (GBL), inter alia, induces metabolic disturbances in the brain which can be followed by changes in the EEG. The compounds of the formula I are able to antagonize this action of GBL on the EEG.

[1] = system: naive mice of the male sex; assay: Scopolamine-induced retrograde amnesia in the passive avoidance test; type: in vivo, mouse; conditions: for minimal effective dose: read-out: minimal effective dose (MED) countering scopolamine
Method: (a) Effect on the scopolamine-induced retrograde amnesia in the passive avoidance test
The test arrangement comprises a light/dark box with an electrifiable mesh floor in the dark section. 90 minutes after administration of placebo and product, naive mice of the male sex are treated subcutaneously with scopolamine hydrobromide (3 mg/kg). The mice are placed in the light section of the box 5 minutes later. After transferring into the dark section they receive there an electric shock to the feet which produces an unpleasant sensation. 24 hours thereafter, each mouse is placed once in the light section of the test apparatus, and the residence time (max. 180 seconds) is measured. […] The significant action of a test substance is calculated, using a median test, by comparison with the control group. The minimal effective dose (MED) of a product is regarded as that which results in a significant action countering scopolamine.

[2] = rat, 50 mg/kg i.p., 15 minutes before hypoxia, n = 8, vs untreated control, shortening (negative) = protective
[3] = rat, 15 minutes before hypoxia, n = 8, vs untreated control, shortening (negative) = protective

Cc1cc(N2CCCCC2)c(C#N)c(C)[n+]1[O-] [Example 14]
LD50 at 168 h (Acute toxicity (LD50); iv, single i.v. administration): 100 to 200 mg/kg
change in vivo at 50 mg/kg (anesthetized male rats; [2]): -44%

Cc1cc(N2CCSCC2)c(C#N)c(C)[n+]1[O-].Cl [Example 1, 3-Cyano-2,6-dimethyl-4-(4-thiomorpholinyl)pyridine 1-oxide hydrochloride]
LD50 at 168 h (Acute toxicity (LD50); iv, single i.v. administration): 135 mg/kg
LD50 at 168 h (Acute toxicity (LD50); po, single p.o. administration): 1190 mg/kg
protective action against GBL-induced EEG changes (rat; 100 and 200 mg/kg i.p.): strong, dose-dependent protective action
protective action against GBL compared with piracetam (rat; i.p.): far exceeded that of the comparison product piracetam
minimal effective dose ([1]; mouse, oral, 90 minutes before scopolamine 3 mg/kg s.c.): 25 mg/kg
effectiveness relative to piracetam (from MED) ([1]; mouse, oral, passive avoidance): four times as effective as piracetam
change in vivo at 25 mg/kg (anesthetized male rats; [3]): -50%

Cc1cc(N2CCCCC2)c([N+](=O)[O-])c(C)[n+]1[O-] [Example 28]
LD50 at 168 h (Acute toxicity (LD50); iv, single i.v. administration): 100 to 200 mg/kg
change in vivo at 25 mg/kg (anesthetized male rats; [3]): -12%

Cc1cc(N2CCCC2)c(C#N)c(C)[n+]1[O-] [Example 13]
LD50 at 168 h (Acute toxicity (LD50); iv, single i.v. administration): 200 mg/kg
change in vivo at 50 mg/kg (anesthetized male rats; [2]): -32%

Cc1cc(N2CCCCCC2)c(C#N)c(C)[n+]1[O-] [Example 22]
LD50 at 168 h (Acute toxicity (LD50); iv, single i.v. administration): 50 to 100 mg/kg
change in vivo at 25 mg/kg (anesthetized male rats; [3]): -38%

NC(=O)CN1CCCC1=O [piracetam, 2-oxo-1-pyrrolidineacetamide, reference compound]
minimal effective dose ([1]; Mus musculus, po): 100 mg/kg

Cc1cc(N2CCSCC2)c(C#N)c(C)n1 [3-Cyano-2,6-dimethyl-4-(4-thiomorpholinyl)pyridine, reference compound]
LD50 at 168 h (Acute toxicity (LD50); ip, single i.p. administration): 150 to 300 mg/kg

COC(=O)c1c(C)nc(C)c(C#N)c1-c1ccccc1[N+](=O)[O-] [Methyl 3-cyano-2,6-dimethyl-4-(2-nitrophenyl)pyridine-5-carboxylate, reference compound]
LD50 at 168 h (Acute toxicity (LD50); iv, single i.v. administration): 50 to 100 mg/kg
change in vivo at 50 mg/kg (anesthetized male rats; [2]): 16%

Cc1cc(N2CCCNCC2)c([N+](=O)[O-])c(C)[n+]1[O-] [Example 11]
LD50 at 168 h (Acute toxicity (LD50); iv, single i.v. administration): 200 mg/kg
change in vivo at 50 mg/kg (anesthetized male rats; Rattus norvegicus): -23%

Cc1cc(N2CCOCC2)c([N+](=O)[O-])c(C)[n+]1[O-] [Example 5, 2,6-Dimethyl-4-(4-morpholinyl)-3-nitropyridine 1-oxide]
LD50 at 168 h (Acute toxicity (LD50); iv, single i.v. administration): > 200 mg/kg
change in vivo at 25 mg/kg (anesthetized male rats; [3]): -16%

Cc1cc(N2CCN(c3ccc(F)cc3)CC2)c([N+](=O)[O-])c(C)[n+]1[O-] [Example 26]
LD50 at 168 h (Acute toxicity (LD50); iv, single i.v. administration): 200 mg/kg
change in vivo at 25 mg/kg (anesthetized male rats; [3]): -27%

c1ccc(Oc2cccnc2)cc1 [3-Phenoxypyridine, reference compound]
LD50 at 168 h (Acute toxicity (LD50); po, single p.o. administration): 400 to 630 mg/kg
change in vivo at 25 mg/kg (anesthetized male rats; [3]): -14%
